PubChem BioAssay (NCI)
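48-hour exposure; five concentrations; linearly interpolated endpoints. GI50 marks 50% less growth. At the TGI there is no net growth.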

Legend:
Assay in all cases: inhibition of tumour cell growth, NCI panel, 48 h
786-0 renal = system: 786-0 renal
A498 renal = system: A498 renal
A549 NSCLC = system: A549 NSCLC
ACHN renal = system: ACHN renal
BT-549 breast = system: BT-549 breast
CAKI-1 renal = system: CAKI-1 renal
CCRF-CEM leukemia = system: CCRF-CEM leukemia
COLO 205 colon = system: COLO 205 colon
DU-145 prostate = system: DU-145 prostate
EKVX NSCLC = system: EKVX NSCLC
HCC-2998 colon = system: HCC-2998 colon
HCT-116 colon = system: HCT-116 colon
HCT-15 colon = system: HCT-15 colon
HL-60(TB) leukemia = system: HL-60(TB) leukemia
HOP-62 NSCLC = system: HOP-62 NSCLC
HOP-92 NSCLC = system: HOP-92 NSCLC
HS 578T breast = system: HS 578T breast
HT29 colon = system: HT29 colon
IGROV1 ovarian = system: IGROV1 ovarian
K-562 leukemia = system: K-562 leukemia
KM12 colon = system: KM12 colon
LOX IMVI melanoma = system: LOX IMVI melanoma
M14 melanoma = system: M14 melanoma
MALME-3M melanoma = system: MALME-3M melanoma
MCF7 breast = system: MCF7 breast
MDA-MB-231 breast = system: MDA-MB-231 breast
MDA-MB-435 = system: MDA-MB-435
MOLT-4 leukemia = system: MOLT-4 leukemia
NCI-H226 lung = system: NCI-H226 lung
NCI-H23 lung = system: NCI-H23 lung
NCI-H460 lung = system: NCI-H460 lung
NCI-H522 lung = system: NCI-H522 lung
NCI/ADR-RES ovarian = system: NCI/ADR-RES ovarian
OVCAR-3 ovarian = system: OVCAR-3 ovarian
OVCAR-4 ovarian = system: OVCAR-4 ovarian
OVCAR-5 ovarian = system: OVCAR-5 ovarian
OVCAR-8 ovarian = system: OVCAR-8 ovarian
PC-3 prostate = system: PC-3 prostate
RPMI-8226 leukemia = system: RPMI-8226 leukemia
RXF 393 renal = system: RXF 393 renal
SF-268 CNS = system: SF-268 CNS
SF-295 CNS = system: SF-295 CNS
SF-539 CNS = system: SF-539 CNS
SK-MEL-2 melanoma = system: SK-MEL-2 melanoma
SK-MEL-28 melanoma = system: SK-MEL-28 melanoma
SK-MEL-5 melanoma = system: SK-MEL-5 melanoma
SK-OV-3 ovarian = system: SK-OV-3 ovarian
SN12C renal = system: SN12C renal
SNB-19 CNS = system: SNB-19 CNS
SNB-75 CNS = system: SNB-75 CNS
SR leukemia = system: SR leukemia
SW-620 colon = system: SW-620 colon
T-47D breast = system: T-47D breast
TK-10 renal = system: TK-10 renal
U251 CNS = system: U251 CNS
UACC-257 melanoma = system: UACC-257 melanoma
UACC-62 melanoma = system: UACC-62 melanoma
UO-31 renal = system: UO-31 renal

What does the source list for `CN(CCCCCl)P(=O)(OCCS(=O)(=O)CC(NC(=O)CCC(N)C(=O)O)C(=O)NC(C(=O)O)c1ccccc1)OCC1OC(n2ccc(N)nc2=O)C(F)(F)C1O` (stereo not drawn)?
GI50 (786-0 renal): 0.02 µM; GI50 (A498 renal): 0.943 µM; TGI (A498 renal): > 100 µM; GI50 (A549 NSCLC): 0.125 µM; TGI (A549 NSCLC): > 100 µM; TGI (ACHN renal): > 33.8 µM; GI50 (BT-549 breast): 0.783 µM; TGI (BT-549 breast): > 100 µM; GI50 (CAKI-1 renal): 0.0438 µM; TGI (CAKI-1 renal): 5.8 µM; GI50 (CCRF-CEM leukemia): 0.0897 µM; TGI (CCRF-CEM leukemia): > 100 µM; GI50 (COLO 205 colon): 0.912 µM; TGI (COLO 205 colon): > 100 µM; GI50 (DU-145 prostate): 0.0359 µM; TGI (DU-145 prostate): 25.9 µM; GI50 (EKVX NSCLC): 11.4 µM; TGI (EKVX NSCLC): > 100 µM; GI50 (HCC-2998 colon): 24.5 µM; TGI (HCC-2998 colon): > 100 µM; GI50 (HCT-116 colon): 0.0378 µM; TGI (HCT-116 colon): > 100 µM; GI50 (HCT-15 colon): 8.92 µM; TGI (HCT-15 colon): > 100 µM; GI50 (HL-60(TB) leukemia): 0.0339 µM; TGI (HL-60(TB) leukemia): 5.23 µM; GI50 (HOP-62 NSCLC): 0.0861 µM; TGI (HOP-62 NSCLC): > 85.9 µM; GI50 (HOP-92 NSCLC): 0.379 µM; TGI (HOP-92 NSCLC): 8.63 µM; GI50 (HS 578T breast): > 60.4 µM; TGI (HS 578T breast): > 100 µM; GI50 (HT29 colon): 0.586 µM; TGI (HT29 colon): > 100 µM; GI50 (IGROV1 ovarian): 0.0581 µM; TGI (IGROV1 ovarian): 25.9 µM; GI50 (K-562 leukemia): 1.58 µM; TGI (K-562 leukemia): > 100 µM; GI50 (KM12 colon): 14.6 µM; TGI (KM12 colon): > 100 µM; GI50 (LOX IMVI melanoma): 0.467 µM; TGI (LOX IMVI melanoma): > 100 µM; GI50 (M14 melanoma): 0.0369 µM; TGI (M14 melanoma): 0.435 µM; GI50 (MALME-3M melanoma): 3.06 µM; TGI (MALME-3M melanoma): > 100 µM; TGI (MCF7 breast): > 100 µM; GI50 (MDA-MB-231 breast): 14.2 µM; TGI (MDA-MB-231 breast): > 100 µM; GI50 (MDA-MB-435): 0.178 µM; TGI (MDA-MB-435): > 100 µM; GI50 (MOLT-4 leukemia): 0.146 µM; TGI (MOLT-4 leukemia): > 70.1 µM; GI50 (NCI-H226 lung): 8.03 µM; TGI (NCI-H226 lung): > 93.3 µM; GI50 (NCI-H23 lung): 0.0483 µM; TGI (NCI-H23 lung): 16.8 µM; GI50 (NCI-H460 lung): 0.104 µM; TGI (NCI-H460 lung): > 100 µM; GI50 (NCI-H522 lung): 3.79 µM; TGI (NCI-H522 lung): > 100 µM; GI50 (NCI/ADR-RES ovarian): 0.0664 µM; TGI (NCI/ADR-RES ovarian): > 62.8 µM; GI50 (OVCAR-3 ovarian): 14.7 µM; TGI (OVCAR-3 ovarian): > 100 µM; GI50 (OVCAR-4 ovarian): > 100 µM; TGI (OVCAR-4 ovarian): > 100 µM; GI50 (OVCAR-5 ovarian): 0.872 µM; TGI (OVCAR-5 ovarian): > 100 µM; GI50 (OVCAR-8 ovarian): < 0.0172 µM; TGI (OVCAR-8 ovarian): > 100 µM; GI50 (PC-3 prostate): 5.24 µM; TGI (PC-3 prostate): > 100 µM; GI50 (RPMI-8226 leukemia): 0.901 µM; TGI (RPMI-8226 leukemia): > 78.1 µM; GI50 (RXF 393 renal): 0.744 µM; TGI (RXF 393 renal): > 45.1 µM; GI50 (SF-268 CNS): 0.337 µM; TGI (SF-268 CNS): > 100 µM; GI50 (SF-295 CNS): 0.334 µM; TGI (SF-295 CNS): 2.71 µM; GI50 (SF-539 CNS): 0.0338 µM; TGI (SF-539 CNS): 0.689 µM; GI50 (SK-MEL-2 melanoma): > 63.7 µM; TGI (SK-MEL-2 melanoma): > 100 µM; GI50 (SK-MEL-28 melanoma): 5.06 µM; TGI (SK-MEL-28 melanoma): > 100 µM; GI50 (SK-MEL-5 melanoma): 0.484 µM; TGI (SK-MEL-5 melanoma): > 100 µM; GI50 (SK-OV-3 ovarian): 0.784 µM; TGI (SK-OV-3 ovarian): > 100 µM; GI50 (SN12C renal): 0.59 µM; TGI (SN12C renal): > 50.9 µM; GI50 (SNB-19 CNS): 0.143 µM; TGI (SNB-19 CNS): > 100 µM; GI50 (SNB-75 CNS): 0.825 µM; TGI (SNB-75 CNS): > 25.2 µM; GI50 (SR leukemia): 0.303 µM; TGI (SR leukemia): 11 µM; GI50 (SW-620 colon): 1.44 µM; TGI (SW-620 colon): > 100 µM; GI50 (T-47D breast): 1.33 µM; TGI (T-47D breast): > 100 µM; GI50 (TK-10 renal): 32.8 µM; TGI (TK-10 renal): > 100 µM; GI50 (U251 CNS): 0.23 µM; TGI (U251 CNS): > 100 µM; GI50 (UACC-257 melanoma): 25 µM; TGI (UACC-257 melanoma): > 100 µM; GI50 (UACC-62 melanoma): 0.377 µM; TGI (UACC-62 melanoma): > 65.4 µM; GI50 (UO-31 renal): < 0.0213 µM; TGI (UO-31 renal): 2.7 µM
